For the assay, the target named is T1, Human O-GlcNAcase (His-Tagged hOGA) (Homo sapiens, UniProt O60502).
T1 sequence (O60502 1-916): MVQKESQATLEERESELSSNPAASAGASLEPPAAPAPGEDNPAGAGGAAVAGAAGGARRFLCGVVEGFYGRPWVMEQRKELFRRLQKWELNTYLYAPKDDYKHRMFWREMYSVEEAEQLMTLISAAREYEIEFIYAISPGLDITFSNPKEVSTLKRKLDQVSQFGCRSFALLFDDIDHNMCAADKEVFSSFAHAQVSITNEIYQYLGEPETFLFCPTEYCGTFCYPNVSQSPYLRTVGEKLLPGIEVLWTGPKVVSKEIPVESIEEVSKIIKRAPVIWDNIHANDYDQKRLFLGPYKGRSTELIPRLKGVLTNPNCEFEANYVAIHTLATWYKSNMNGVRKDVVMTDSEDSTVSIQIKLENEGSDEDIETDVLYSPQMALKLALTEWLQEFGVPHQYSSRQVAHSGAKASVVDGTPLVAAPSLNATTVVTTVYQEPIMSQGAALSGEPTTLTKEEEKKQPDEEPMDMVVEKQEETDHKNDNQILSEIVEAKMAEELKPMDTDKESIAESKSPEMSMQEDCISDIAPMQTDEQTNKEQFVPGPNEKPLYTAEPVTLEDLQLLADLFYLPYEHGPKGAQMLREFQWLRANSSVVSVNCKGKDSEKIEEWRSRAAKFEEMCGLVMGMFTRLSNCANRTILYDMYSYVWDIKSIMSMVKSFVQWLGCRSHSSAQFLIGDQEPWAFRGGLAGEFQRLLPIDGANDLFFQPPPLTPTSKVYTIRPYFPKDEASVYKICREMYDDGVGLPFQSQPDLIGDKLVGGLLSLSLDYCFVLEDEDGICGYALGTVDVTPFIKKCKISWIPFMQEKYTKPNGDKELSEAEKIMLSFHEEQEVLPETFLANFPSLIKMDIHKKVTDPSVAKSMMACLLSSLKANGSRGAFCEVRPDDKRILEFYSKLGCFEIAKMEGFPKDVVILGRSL
Put plainly: Human O-GlcNAcase enzyme inhibition assay. It is filed as biochemical. The settings on record: 20 nM His-Tagged hOGA, 10 μM FL-GlcNAc, McIlvaine's Buffer pH 6.5, 60 min at room temperature, fluorescence; read-out: OGA IC50. The procedure: Example B01: Human O-GlcNAcase Enzyme Inhibition Assay
5 μl of the appropriate concentration of a solution of inhibitor in Mcllvaine's Buffer (pH 6.5) in 2% DMSO (for a dose response curve calculation) is added into each well of a 384-well plate (Greiner, 781900). Then, 20 nM of His-Tagged hOGA and 10 μM of FL-GlcNAc (Fluorescein mono-beta-D-(2-deoxy-2-N-acetyl) glucopyranoside; Marker Gene Technologies Inc, M1485) were added to the 384-well plate for a final volume of 20 μl. After incubation for 60 min at room temperature, the reaction was terminated by the addition of 10 μL of stop buffer (200 mM glycine, pH 10.75). The level of fluorescence (λexc 485 nm; (λemm 520 nm) was read on a PHERAstar machine. The amount of fluorescence measured was plotted against the concentration of inhibitor to produce a sigmoidal dose response curve to calculate an IC50. All individual data was corrected by subtraction of the background (Thiamet 3 uM=100% inhibition) whilst 0.5% DMSO was considered as the control value (no inhibition).

Structures are written as SMILES.

Here are results for 27 compounds from patent US12016852B2, “Pyrrolidine glycosidase inhibitors” (Asceneuron SA, priority 2018, dated 2024).

The term IC50 denotes the concentration that gives 50% inhibition.

Consider `c1ncc(-c2ccc(CN3CCCC3c3ccc4c(c3)OCCO4)cc2)cn1` (racemic) [Example 39, 5-(4-((2-(2,3-dihydrobenzo[b] [1,4]dioxin-6-yl)pyrrolidin-1-yl)methyl)phenyl)pyrimidine], for which the IC50 lay in the range of 50 to 200 nM.
The result for `Fc1cc(-c2ccccn2)ccc1CN1CCCC1c1ccc2c(c1)OCCO2` (racemic) [Example 41, 2-(4-((2-(2,3-dihydrobenzo[b] [1,4]dioxin-6-yl)pyrrolidin-1-yl)methyl)-3-fluorophenyl)pyridine] reads 200 to 1000 nM.
The result for `Clc1cc(-c2ccccn2)ccc1CN1CCCC1c1ccc2c(c1)OCCO2` (racemic) [Example 43, (3-chloro-4-((2-(2,3-dihydrobenzo[b] [1,4]dioxin-6-yl)pyrrolidin-1-yl)methyl)phenyl) pyridine] reads 1000 to 10000 nM; that for `CS(=O)(=O)c1cccc(-c2ccc(CN3CCCC3c3ccc4c(c3)OCCO4)cc2)c1` (racemic) [Example 44, 2-(2,3-dihydrobenzo[b] [1,4]dioxin-6-yl)-1-((3′-(methylsulfonyl)-[1,1′-biphenyl]-4-yl)methyl)pyrrolidine], 200 to 1000 nM; that for `Cc1cc(-c2cnn(C)c2)ccc1CN1CCCC1c1ccc2c(c1)OCCO2` (racemic) [Example 45, 4-(4-((2-(2,3-dihydrobenzo[b] [1,4]dioxin-6-yl)pyrrolidin-1-yl)methyl)-3-methylphenyl)-1-methyl-1H-pyrazole], 50 to 200 nM.
The same measure for `c1cc(-c2ccc(CN3CCCC3c3ccc4c(c3)OCCO4)cc2)ccn1` (racemic) [Example 46, 4-(4-((2-(2,3-dihydrobenzo[b] [1,4]dioxin-6-yl)pyrrolidin-1-yl)methyl)phenyl)pyridine]: 200 to 1000 nM.
For the compound `Cc1cc(-c2ccncc2)ccc1CN1CCCC1c1ccc2c(c1)OCCO2` (racemic) [Example 49, 4-(4-((2-(2,3-dihydrobenzo[b] [1,4]dioxin-6-yl)pyrrolidin-1-yl)methyl)-3-methylphenyl)pyridine], the IC50 lay in the range of 200 to 1000 nM.
The result for `CC(=O)Nc1ncc(CN2CCCC2c2ccc3c(c2)OCCO3)s1` (racemic) [Example 50, N-(5-((2-(2,3-dihydrobenzo[b] [1,4]dioxin-6-yl)pyrrolidin-1-yl)methyl)thiazol-2-yl)acetamide] reads 200 to 1000 nM.
As for `Brc1cnn(-c2ccc(CN3CCCC3c3ccc4c(c3)OCCO4)cc2)c1` (racemic) [Example 51, 4-bromo-1-(4-((2-(2,3-dihydrobenzo[b] [1,4]dioxin-6-yl)pyrrolidin-1-yl)methyl)phenyl)-1H-pyrazole], the IC50 fell in the range of 50 to 200 nM.
The result for `N#Cc1cnn(-c2ccc(CN3CCCC3c3ccc4c(c3)OCCO4)cc2)c1` (racemic) [Example 52, 1-(4-((2-(2,3-dihydrobenzo[b] [1,4]dioxin-6-yl)pyrrolidin-1-yl)methyl)phenyl)-1H-pyrazole-4-carbonitrile] reads 50 to 200 nM; that for `Cc1noc(C)c1-c1ccc(CN2CCCC2c2ccc3c(c2)OCCO3)cc1` (racemic) [Example 54, 4-(4-((2-(2,3-dihydrobenzo[b] [1,4]dioxin-6-yl)pyrrolidin-1-yl)methyl)phenyl)-3,5-dimethylisoxazole], 1000 to 10000 nM; that for `Cc1nn(C)c(C)c1-c1ccc(CN2CCCC2c2ccc3c(c2)OCCO3)cc1` (racemic) [Example 55, 4-(4-((2-(2,3-dihydrobenzo[b] [1,4]dioxin-6-yl)pyrrolidin-1-yl)methyl)phenyl)-1,3,5-trimethyl-1H-pyrazole], 1000 to 10000 nM.
The same measure for `Cc1cc(-c2cccnc2C)ccc1CN1CCCC1c1ccc2c(c1)OCCO2` (racemic) [Example 56, 3-(4-((2-(2,3-dihydrobenzo[b] [1,4]dioxin-6-yl)pyrrolidin-1-yl)methyl)-3-methylphenyl)-2-methylpyridine]: 200 to 1000 nM; for `Cc1cc(-c2ccncc2C)ccc1CN1CCCC1c1ccc2c(c1)OCCO2` (racemic) [Example 57, 4-(4-((2-(2,3-dihydrobenzo[b] [1,4]dioxin-6-yl)pyrrolidin-1-yl)methyl)-3-methylphenyl)-3-methylpyridine]: 200 to 1000 nM.
The same measure for `c1csc(-c2ccc(CN3CCCC3c3ccc4c(c3)OCCO4)cc2)n1` (racemic) [Example 58, 2-(4-((2-(2,3-dihydrobenzo[b] [1,4]dioxin-6-yl)pyrrolidin-1-yl)methyl)phenyl)thiazole]: 50 to 200 nM; for `Cc1cnc(-c2ccc(CN3CCCC3c3ccc4c(c3)OCCO4)cc2)s1` (racemic) [Example 59, 2-(4-((2-(2,3-dihydrobenzo[b] [1,4]dioxin-6-yl)pyrrolidin-1-yl)methyl)phenyl)-5-methylthiazole]: 200 to 1000 nM; for `N#Cc1cnc(-c2ccc(CN3CCCC3c3ccc4c(c3)OCCO4)cc2)s1` (racemic) [Example 60, 2-(4-((2-(2,3-dihydrobenzo[b] [1,4]dioxin-6-yl)pyrrolidin-1-yl)methyl)phenyl)thiazole-5-carbonitrile]: 50 to 200 nM.
`O=C1COCCN1c1ccc(CN2CCCC2c2ccc3c(c2)OCCO3)cc1` (racemic) [Example 61, 4-(4-((2-(2,3-dihydrobenzo[b] [1,4]dioxin-6-yl)pyrrolidin-1-yl)methyl)phenyl) morpholin-3-one]: the IC50 lay within 200 to 1000 nM.
The same measure for `O=C1CCCCN1c1ccc(CN2CCCC2c2ccc3c(c2)OCCO3)cc1` (racemic) [Example 62, 1-(4-((2-(2,3-dihydrobenzo[b] [1,4]dioxin-6-yl)pyrrolidin-1-yl)methyl)phenyl)piperidin-2-one]: 200 to 1000 nM.
The result for `CS(=O)(=O)c1cncc(-c2ccc(CN3CCCC3c3ccc4c(c3)OCCO4)cc2)c1` (racemic) [Example 63, 3-(4-((2-(2,3-dihydrobenzo[b] [1,4]dioxin-6-yl)pyrrolidin-1-yl)methyl)phenyl)-5-(methylsulfonyl)pyridine] reads 50 to 200 nM; that for `c1cnc(-c2ccc(CN3CCCC3c3ccc4c(c3)OCCO4)cc2)cn1` (racemic) [Example 64, 2-(4-((2-(2,3-dihydrobenzo[b] [1,4]dioxin-6-yl)pyrrolidin-1-yl)methyl)phenyl)pyrazine], 50 to 200 nM.
`CS(=O)(=O)CCOc1ccc(CN2CCCC2c2ccc3c(c2)OCCO3)cc1` (racemic) [Example 65, 2-(2,3-dihydrobenzo[b] [1,4]dioxin-6-yl)-1-(4-(2-(methylsulfonyl)ethoxy)benzyl)pyrrolidine]: the IC50 fell in the range of 1000 to 10000 nM.
The same measure for `O=S1(=O)CCN(c2ccc(CN3CCCC3c3ccc4c(c3)OCCO4)cc2)CC1` (racemic) [Example 66, 4-(4-((2-(2,3-dihydrobenzo[b] [1,4]dioxin-6-yl)pyrrolidin-1-yl)methyl)phenyl)thiomorpholine 1,1-dioxide]: 200 to 1000 nM.
The same measure for `O=C1CSCCN1c1ccc(CN2CCCC2c2ccc3c(c2)OCCO3)cc1` (racemic) [Example 67, 4-(4-((2-(2,3-dihydrobenzo[b] [1,4]dioxin-6-yl)pyrrolidin-1-yl)methyl)phenyl)thiomorpholin-3-one]: 200 to 1000 nM.
The same measure for `Cc1csc(-c2ccc(CN3CCCC3c3ccc4c(c3)OCCO4)cc2)n1` (racemic) [Example 68, 2-(4-((2-(2,3-dihydrobenzo[b] [1,4]dioxin-6-yl)pyrrolidin-1-yl)methyl)phenyl)-4-methylthiazole]: 200 to 1000 nM.
As for `c1cnc(-c2ccc(CN3CCCC3c3ccc4c(c3)OCCO4)cc2)nc1` (racemic) [Example 69, 2-(4-((2-(2,3-dihydrobenzo[b] [1,4]dioxin-6-yl)pyrrolidin-1-yl)methyl)phenyl) pyrimidine], the IC50 lay in the range of 50 to 200 nM.
The result for `Cc1cnccc1-c1ccc(CN2CCCC2c2ccc3c(c2)OCCO3)cc1C` (racemic) [Example 70, 4-(4-((2-(2,3-dihydrobenzo[b] [1,4]dioxin-6-yl)pyrrolidin-1-yl)methyl)-2-methylphenyl)-3-methylpyridine] reads 1000 to 10000 nM.
